Results on 8 compounds are retold here after PubChem BioAssay (NCI).

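Compound exposure: 48 hours, 5 concentrations, 96-well plates. TGI denotes the concentration required for complete inhibition of growth.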

Among the test systems are RPMI-8226 leukemia; OVCAR-8 ovarian; T-47D breast; PC-3 prostate; DU-145 prostate; MOLT-4 leukemia; A549 NSCLC; OVCAR-5 ovarian; MDA-MB-231 breast; LOX IMVI melanoma; SR leukemia; MCF7 breast; M14 melanoma; HT29 colon; NCI-H23 lung; ACHN renal; K-562 leukemia; NCI-H522 lung; HOP-92 NSCLC.
Assay in all cases: NCI anticancer screen, dose series, 48 h

In the case of `COc1ccccc1C(=O)NO`, the TGI with RPMI-8226 leukemia, in the assay on OVCAR-8 ovarian, in the assay with T-47D breast, in the assay on PC-3 prostate, with DU-145 prostate and in the assay with MOLT-4 leukemia was greater than 100 µM throughout. Further, the TGI with A549 NSCLC, in the assay with OVCAR-5 ovarian, with MDA-MB-231 breast, with LOX IMVI melanoma, in the assay with SR leukemia and in the assay with MCF7 breast was greater than 100 µM in each case. Besides, the TGI with M14 melanoma, in the assay with HT29 colon, with NCI-H23 lung, in the assay on ACHN renal, in the assay with K-562 leukemia and with NCI-H522 lung was greater than 100 µM in each case.

In the case of `COc1ccc2nc3c([N+](=O)[O-])ccc4c3c(c2c1)NCCN4CCN(C)C`, the TGI is 4.62 µM with RPMI-8226 leukemia; greater than 10 µM in the assay on OVCAR-8 ovarian; 1.86 µM in the assay on PC-3 prostate; 4.91 µM in the assay with DU-145 prostate; 7.67 µM in the assay on MOLT-4 leukemia; 2.19 µM in the assay with A549 NSCLC. For the same compound, the TGI in the assay with OVCAR-5 ovarian is 9.89 µM; in the assay on MDA-MB-231 breast it was 1.88 µM; in the assay on LOX IMVI melanoma it was 1.45 µM; in the assay on SR leukemia it was 7.24 µM; in the assay with MCF7 breast, greater than 10 µM; in the assay with M14 melanoma, 1.71 µM. In addition, the TGI in the assay with HT29 colon is 2.34 µM; in the assay on NCI-H23 lung it was 2.86 µM; in the assay on ACHN renal, 1.66 µM; with K-562 leukemia, greater than 10 µM; in the assay with HOP-92 NSCLC, 2.73 µM.

Consider `CON(C)C(=O)[C@H]1C[C@@]1(C)CO`, for which the TGI with OVCAR-8 ovarian, in the assay on T-47D breast, with PC-3 prostate, in the assay with DU-145 prostate, with MOLT-4 leukemia and in the assay with A549 NSCLC was greater than 100 µM throughout. The TGI in the assay on OVCAR-5 ovarian, in the assay on MDA-MB-231 breast, in the assay with SR leukemia, in the assay with MCF7 breast, in the assay with M14 melanoma and in the assay on HT29 colon was greater than 100 µM in each case. The TGI in the assay with NCI-H23 lung, with ACHN renal, in the assay on K-562 leukemia and in the assay on HOP-92 NSCLC was greater than 100 µM throughout.

As for `COc1ccc2c(=O)cc(-c3ccc(OC)c(OC)c3OC)oc2c1`, the TGI was 53.9 µM in the assay on RPMI-8226 leukemia; greater than 100 µM in the assay with OVCAR-8 ovarian; greater than 100 µM with T-47D breast; greater than 100 µM with PC-3 prostate; greater than 100 µM in the assay with DU-145 prostate; greater than 100 µM with MOLT-4 leukemia. Moreover, the TGI in the assay on A549 NSCLC was greater than 31.6 µM; with OVCAR-5 ovarian, greater than 100 µM; in the assay on MDA-MB-231 breast it was greater than 100 µM; in the assay on LOX IMVI melanoma it was greater than 100 µM; in the assay on SR leukemia, greater than 100 µM; in the assay with M14 melanoma it was greater than 100 µM. In addition, the TGI with HT29 colon, with NCI-H23 lung, in the assay on ACHN renal, in the assay on K-562 leukemia, in the assay on NCI-H522 lung and with HOP-92 NSCLC was greater than 100 µM in each case.

`CNC1c2ccccc2C(=O)c2cc3c(cc21)OCCOCCOCCOCCO3` (configuration not stated): the TGI was greater than 100 µM with RPMI-8226 leukemia; greater than 100 µM in the assay with OVCAR-8 ovarian; greater than 100 µM in the assay with T-47D breast; greater than 100 µM with PC-3 prostate; 92.2 µM in the assay on MOLT-4 leukemia; greater than 100 µM with A549 NSCLC. Also, the TGI is greater than 100 µM in the assay with OVCAR-5 ovarian; greater than 100 µM in the assay with MDA-MB-231 breast; 96.2 µM in the assay on SR leukemia; greater than 100 µM in the assay on MCF7 breast; greater than 100 µM in the assay on M14 melanoma; greater than 100 µM with HT29 colon. The TGI in the assay on ACHN renal, in the assay on K-562 leukemia and in the assay on NCI-H522 lung was greater than 100 µM in each case.

Regarding `CCOC(=O)Cn1c2ccc(Br)cc2c2nc3ccccc3nc21`, the TGI in the assay on RPMI-8226 leukemia, with OVCAR-8 ovarian, in the assay with T-47D breast, in the assay on PC-3 prostate, in the assay on DU-145 prostate and in the assay on MOLT-4 leukemia was greater than 100 µM in each case. The TGI with A549 NSCLC, in the assay on OVCAR-5 ovarian, with MDA-MB-231 breast, in the assay on LOX IMVI melanoma, in the assay on SR leukemia and in the assay with M14 melanoma was greater than 100 µM each time. The TGI with HT29 colon, in the assay with NCI-H23 lung, with ACHN renal, in the assay on K-562 leukemia and in the assay on HOP-92 NSCLC was greater than 100 µM each time.

In the case of `CCC1(CC)C(=O)N(C(=O)c2ccccc2)N(C(=O)c2ccc(Cl)cc2)C1=O`, the TGI in the assay with RPMI-8226 leukemia is greater than 75 µM; in the assay with OVCAR-8 ovarian, greater than 75 µM; with T-47D breast, greater than 75 µM; with PC-3 prostate, greater than 75 µM; with DU-145 prostate, greater than 75 µM; in the assay with MOLT-4 leukemia, 47.7 µM. Further, the TGI is greater than 75 µM with A549 NSCLC; greater than 75 µM with OVCAR-5 ovarian; greater than 75 µM in the assay on MDA-MB-231 breast; greater than 75 µM in the assay with LOX IMVI melanoma; 53.6 µM in the assay with SR leukemia; greater than 75 µM in the assay on MCF7 breast. Further, the TGI in the assay on M14 melanoma, in the assay with HT29 colon, in the assay with NCI-H23 lung, in the assay on ACHN renal, with K-562 leukemia and in the assay on NCI-H522 lung was greater than 75 µM throughout.

For `COc1ccc2c(C)c(Oc3c(Cl)c(Cl)c(O)c(C#N)c3C#N)oc2c1`, the TGI in the assay on RPMI-8226 leukemia, in the assay on OVCAR-8 ovarian, in the assay with T-47D breast, in the assay with PC-3 prostate, with DU-145 prostate and with MOLT-4 leukemia was greater than 100 µM throughout. For the same compound, the TGI with A549 NSCLC, in the assay on OVCAR-5 ovarian, in the assay with MDA-MB-231 breast, with LOX IMVI melanoma, in the assay with SR leukemia and in the assay on MCF7 breast was greater than 100 µM throughout. Also, the TGI in the assay on M14 melanoma, in the assay with HT29 colon, in the assay with NCI-H23 lung, in the assay on ACHN renal, with K-562 leukemia and with NCI-H522 lung was greater than 100 µM each time.
